Drawing on patent publication US20240239785A1, “SUBSTITUTED 2-(2,6-DIOXOPIPERIDIN-3-YL)-5-(1-PIPERIDIN-4-YL)ISOINDOLINE-1,3-DIONE DERIVATIVES AND USES THEREOF” (Neomorph, Inc., priority 2021, published 2024), this text covers DC50, Dmax and IC50 for nine compounds.

For orientation: IC50 means the concentration that inhibits the measured activity by half.

For one data set, the target named is T1, IKZF2 (Homo sapiens, UniProt Q96SW2+Q9UKS7).
T1 construct: endogenous in cells; host or cells: MOLT4 (CRISPR/Cas9 HiBit knock-in at the IKZF2 locus)
T1 sequence (Q9UKS7 whole entry): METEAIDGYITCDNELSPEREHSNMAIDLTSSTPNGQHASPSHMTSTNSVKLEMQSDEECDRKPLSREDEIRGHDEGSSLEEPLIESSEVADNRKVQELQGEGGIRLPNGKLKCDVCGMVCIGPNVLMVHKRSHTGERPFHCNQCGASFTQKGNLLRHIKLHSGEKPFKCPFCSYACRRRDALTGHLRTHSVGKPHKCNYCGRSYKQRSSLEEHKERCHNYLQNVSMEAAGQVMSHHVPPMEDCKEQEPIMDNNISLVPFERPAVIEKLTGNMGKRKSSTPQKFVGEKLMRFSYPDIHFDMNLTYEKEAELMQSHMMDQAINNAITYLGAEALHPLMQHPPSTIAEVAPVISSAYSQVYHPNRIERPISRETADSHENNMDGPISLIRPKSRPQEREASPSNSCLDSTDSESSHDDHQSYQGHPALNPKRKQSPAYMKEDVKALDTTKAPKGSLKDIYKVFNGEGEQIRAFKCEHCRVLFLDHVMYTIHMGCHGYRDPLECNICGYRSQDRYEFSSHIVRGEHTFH
T1 sequence (Q96SW2 whole entry): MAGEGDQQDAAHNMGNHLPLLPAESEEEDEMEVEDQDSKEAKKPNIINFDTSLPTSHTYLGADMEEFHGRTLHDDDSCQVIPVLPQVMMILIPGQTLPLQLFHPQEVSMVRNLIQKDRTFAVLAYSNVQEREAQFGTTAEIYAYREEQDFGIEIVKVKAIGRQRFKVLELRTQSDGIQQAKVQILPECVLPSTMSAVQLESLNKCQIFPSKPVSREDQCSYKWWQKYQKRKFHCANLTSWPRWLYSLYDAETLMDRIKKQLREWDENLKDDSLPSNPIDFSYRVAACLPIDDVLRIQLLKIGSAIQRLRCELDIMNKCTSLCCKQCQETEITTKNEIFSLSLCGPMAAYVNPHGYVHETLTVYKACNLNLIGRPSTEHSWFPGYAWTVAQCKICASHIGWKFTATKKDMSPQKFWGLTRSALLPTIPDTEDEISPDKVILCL
T1 sequence (Q16531 whole entry partner): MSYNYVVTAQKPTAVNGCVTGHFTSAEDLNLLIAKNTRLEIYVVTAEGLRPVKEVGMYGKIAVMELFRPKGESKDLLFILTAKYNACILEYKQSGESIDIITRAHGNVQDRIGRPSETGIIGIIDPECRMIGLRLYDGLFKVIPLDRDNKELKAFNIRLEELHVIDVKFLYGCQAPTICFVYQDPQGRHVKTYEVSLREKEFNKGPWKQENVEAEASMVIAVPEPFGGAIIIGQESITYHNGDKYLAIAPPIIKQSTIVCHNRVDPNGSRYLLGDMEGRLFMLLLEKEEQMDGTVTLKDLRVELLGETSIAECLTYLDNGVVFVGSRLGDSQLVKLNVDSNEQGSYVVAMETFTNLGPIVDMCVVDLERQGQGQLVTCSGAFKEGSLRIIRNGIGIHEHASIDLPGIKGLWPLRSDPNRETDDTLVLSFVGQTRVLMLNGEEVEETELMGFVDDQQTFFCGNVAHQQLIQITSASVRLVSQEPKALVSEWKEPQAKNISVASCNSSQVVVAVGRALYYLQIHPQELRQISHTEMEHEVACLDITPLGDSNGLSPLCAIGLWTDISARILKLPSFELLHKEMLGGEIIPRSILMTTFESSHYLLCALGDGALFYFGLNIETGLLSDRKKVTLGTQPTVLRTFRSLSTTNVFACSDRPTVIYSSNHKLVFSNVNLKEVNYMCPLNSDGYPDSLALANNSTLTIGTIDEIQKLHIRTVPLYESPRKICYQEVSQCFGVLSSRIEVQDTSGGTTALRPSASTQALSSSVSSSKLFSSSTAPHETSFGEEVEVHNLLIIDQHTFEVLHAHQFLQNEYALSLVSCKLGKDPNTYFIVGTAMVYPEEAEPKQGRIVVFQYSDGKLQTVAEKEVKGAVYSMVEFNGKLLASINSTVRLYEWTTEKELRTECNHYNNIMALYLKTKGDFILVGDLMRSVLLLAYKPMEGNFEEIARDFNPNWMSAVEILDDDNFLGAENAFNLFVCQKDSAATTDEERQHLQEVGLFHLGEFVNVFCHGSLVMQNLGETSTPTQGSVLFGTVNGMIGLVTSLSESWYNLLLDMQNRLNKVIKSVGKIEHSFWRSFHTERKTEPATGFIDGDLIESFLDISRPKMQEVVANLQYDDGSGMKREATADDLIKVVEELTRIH
Nature of the data set: MOLT4 IKZF2 HiBit assay. It is filed as cell-based. To be noted: MOLT4 IKZF2 HiBit cells; for DC50: 6 hours incubation, 10-point dose response from 30 μM; for Dmax at 30 µM: MOLT-4, 6 hr (Dmax), read-out: % reduction of IKZF2 @ 30 μM (6 hr). The method, then:
MOLT4 IKZF2 HiBit Assay Protocol:
This protocol used MOLT4 cells that were engineered using CRISPR/Cas9-mediated genomic insertion of HiBit, tagged to the N terminus of the IKZF2 coding sequence. Day 1. A 10-point dose response was created starting from 30 μM down to InM using a Tecan D300e. Next was added 8,000 cells/well of the MOLT4 IKZF2 HiBit cells to the compound plate. The compounds plate was incubated for 6 hours. Day 2. Nano-Glo HiBit Lytic Buffer/Nano-Glo HiBit Lytic substrate/LgBit Protein mix was added to each well and the compound plate was incubated for 15 minutes. Finally, luminescence signal was read using a BMG Labtech PHERAstar FSX. Data was normalized to DMSO and graphed using GraphPad Prism to determine the concentration points at which 50% of HiBiT-Helios degradation was achieved by each compound. The extent of degradation (range of luminescence) from the highest to lowest concentration points was calculated to determine Dmax.
Background: HiBiT is a short tag that completes a luciferase, so light tracks the accessible tagged protein.

The next data set has as its target hERG (Homo sapiens, UniProt Q12809). Nature of the data set: hERG IC50. (In general: hERG is a cardiac potassium channel; its block is linked to QT prolongation.)

Counter-ions that a name gives are not always drawn. Like-named read-outs stand apart in the source and are kept apart here. Some results are limits rather than exact numbers.

Chain of hERG (Q12809 whole entry): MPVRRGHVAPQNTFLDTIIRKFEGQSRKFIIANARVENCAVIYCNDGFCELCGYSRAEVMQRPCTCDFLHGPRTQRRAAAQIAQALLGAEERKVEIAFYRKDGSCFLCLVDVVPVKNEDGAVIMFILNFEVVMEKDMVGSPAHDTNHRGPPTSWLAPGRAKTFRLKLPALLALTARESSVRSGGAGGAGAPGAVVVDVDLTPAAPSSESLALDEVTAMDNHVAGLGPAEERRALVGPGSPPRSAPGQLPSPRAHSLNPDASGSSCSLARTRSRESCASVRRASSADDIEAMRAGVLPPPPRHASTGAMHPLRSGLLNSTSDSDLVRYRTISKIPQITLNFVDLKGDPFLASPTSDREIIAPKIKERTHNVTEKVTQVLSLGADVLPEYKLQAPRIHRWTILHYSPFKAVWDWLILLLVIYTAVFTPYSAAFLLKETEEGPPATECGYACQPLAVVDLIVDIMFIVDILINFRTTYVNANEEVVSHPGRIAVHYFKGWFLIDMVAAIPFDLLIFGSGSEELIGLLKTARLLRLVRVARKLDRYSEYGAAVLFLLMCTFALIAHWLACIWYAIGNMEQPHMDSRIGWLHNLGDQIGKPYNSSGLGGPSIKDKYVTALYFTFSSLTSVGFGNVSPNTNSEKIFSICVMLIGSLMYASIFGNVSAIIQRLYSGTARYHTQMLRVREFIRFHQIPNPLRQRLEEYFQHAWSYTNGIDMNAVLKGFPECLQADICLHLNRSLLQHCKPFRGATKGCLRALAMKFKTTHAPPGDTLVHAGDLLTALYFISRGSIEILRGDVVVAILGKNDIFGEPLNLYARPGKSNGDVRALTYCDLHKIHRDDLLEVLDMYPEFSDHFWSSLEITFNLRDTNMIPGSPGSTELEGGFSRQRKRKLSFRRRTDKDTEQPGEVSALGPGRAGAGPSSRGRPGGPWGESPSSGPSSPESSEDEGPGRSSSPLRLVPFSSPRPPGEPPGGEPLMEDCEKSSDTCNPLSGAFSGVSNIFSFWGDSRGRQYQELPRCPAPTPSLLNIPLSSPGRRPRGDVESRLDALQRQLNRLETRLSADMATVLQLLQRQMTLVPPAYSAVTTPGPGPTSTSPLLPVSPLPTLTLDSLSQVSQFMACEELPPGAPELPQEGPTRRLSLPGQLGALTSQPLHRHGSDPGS

`O=C1CCC(N2C(=O)c3ccc(C4(O)CCN(C5CCc6ncccc65)CC4)cc3C2=O)C(=O)N1` (centres unmarked) [Compound 7, 5-(1-{5H,6H,7H-cyclopenta[b]pyridin-5-yl}-4-hydroxypiperidin-4-yl)-2-(2,6-dioxopiperidin-3-yl)-2,3-dihydro-1H-isoindole-1,3-dione, HCl salt]: on IKZF2, the DC50 amounted to 9 nM and the Dmax at 30 µM turned out to be 90%. The IC50 against hERG was greater than 30000 nM.
Consider `O=C1CCC(N2C(=O)c3ccc(C4(O)CCN(Cc5ccc(F)cc5)CC4)c(F)c3C2=O)C(=O)N1` (centres unmarked) [Compound 132, 2-(2,6-dioxopiperidin-3-yl)-4-fluoro-5-(1-(4-fluorobenzyl)-4-hydroxypiperidin-4-yl)isoindoline-1,3-dione], for which, on IKZF2, the DC50 is 7 nM and the Dmax at 30 µM was 79%. The compound also registered an IC50 against hERG (human) of 30000 nM.
In the case of `CC1CC(O)(c2ccc3c(c2)C(=O)N(C2CCC(=O)NC2=O)C3=O)CCN1Cc1ccccc1` (centres unmarked) [Compound 15, 5-(1-benzyl-4-hydroxy-2-methylpiperidin-4-yl)-2-(2,6-dioxopiperidin-3-yl)-2,3-dihydro-1H-isoindole-1,3-dione], on IKZF2, the DC50 came out at 12 nM and the Dmax at 30 µM came to 66%. The same compound gave an IC50 against hERG greater than 30000 nM.
For `O=C1CCC(N2C(=O)c3ccc(C4(O)CCN(Cc5ccc6scnc6c5)CC4)cc3C2=O)C(=O)N1` (centres unmarked) [Compound 111, 5-{1-[(1,3-benzothiazol-5-yl)methyl]-4-hydroxypiperidin-4-yl}-2-(2,6-dioxopiperidin-3-yl)-2,3-dihydro-1H-isoindole-1,3-dione, HCl salt], in that order: 5 nM, 83% and greater than 30000 nM.
As to `O=C1CCC(N2C(=O)c3ccc(C4(O)CCN(C(CF)c5ccccc5)CC4)cc3C2=O)C(=O)N1` (centres unmarked) [Compound 34, 2-(2,6-dioxopiperidin-3-yl)-5-[1-(2-fluoro-1-phenylethyl)-4-hydroxypiperidin-4-yl]-2,3-dihydro-1H-isoindole-1,3-dione, formic acid salt], at IKZF2, the DC50 is 31 nM and the Dmax at 30 µM was found to be 76%.
On the same counts, the results for `O=C1CCC(N2C(=O)c3ccc(C4(O)CCN(Cc5ccncc5)CC4)cc3C2=O)C(=O)N1` (centres unmarked) [Compound 70, 2-(2,6-dioxopiperidin-3-yl)-5-{4-hydroxy-1-[(pyridin-4-yl)methyl]piperidin-4-yl}-2,3-dihydro-1H-isoindole-1,3-dione, HCl salt] are 20 nM and 78%.
On to `O=C1CCC(N2C(=O)c3ccc(C4(O)CCN(Cc5ccc(F)c(F)c5)CC4)cc3C2=O)C(=O)N1` (centres unmarked) [Compound 60, 5-{1-[(3,4-difluorophenyl)methyl]-4-hydroxypiperidin-4-yl}-2-(2,6-dioxopiperidin-3-yl)-2,3-dihydro-1H-isoindole-1,3-dione, HCl salt], for which, on IKZF2, the DC50 is 6 nM and the Dmax at 30 µM is 80%. Further, on hERG, it took 23000 nM to reach half-maximal inhibition (IC50).
Consider `N#Cc1cccc(CN2CCC(O)(c3ccc4c(c3)C(=O)N(C3CCC(=O)NC3=O)C4=O)CC2)c1` (centres unmarked) [Compound 42, 3-({4-[2-(2,6-dioxopiperidin-3-yl)-1,3-dioxo-2,3-dihydro-1H-isoindol-5-yl]-4-hydroxypiperidin-1-yl}methyl)benzonitrile], for which, at IKZF2, the DC50 worked out at 9 nM and the Dmax at 30 µM turned out to be 80%.
In the case of `O=C1CCC(N2C(=O)c3ccc(C4(O)CCN(Cc5ccccc5)CC4)c(F)c3C2=O)C(=O)N1` (centres unmarked) [Compound 128, 5-(1-benzyl-4-hydroxypiperidin-4-yl)-2-(2,6-dioxopiperidin-3-yl)-4-fluoro-2,3-dihydro-1H-isoindole-1,3-dione, HCl salt], on IKZF2, the DC50 was found to be 2 nM and the Dmax at 30 µM stood at 81%.
